Test results as given in the supplement of paper PMC4862054.

Tests used:
Settings in all cases: incubation time: 72 h
CAL-51 [1] = assay: normalised viability (% of control), CellTiter-Blue; higher = more viable cells (100 = DMSO, 0 = benzethonium chloride kill control)
How it was run: (§1)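 After 72 h on compound-loaded 384-well plates, breast cancer cell lines received 2.5 µl CellTiter-Blue reagent for 2 h at 37 °C. Fluorescence at 560/590 nm was scaled per plate so that vehicle was 100 and a positive kill control was 0. The value stands for normalised viability at a single listed concentration of the series.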

CAL-85-1 [2] = assay: as above
How it was run: as §1

HCC1599 [3] = assay: as above
How it was run: as §1

BT-549 [4] = assay: as above
How it was run: as §1

MDA-MB-436 [5] = assay: as above
How it was run: as §1

HDQ-P1 [6] = assay: as above
How it was run: as §1

CAL-148 [7] = assay: as above
How it was run: as §1

DU-4475 [8] = assay: as above
How it was run: as §1

BT-474 [9] = assay: as above
How it was run: as §1

Hs578T [10] = assay: as above
How it was run: as §1

MDA-MB-231 [11] = assay: as above
How it was run: as §1

SK-BR-3 [12] = assay: as above
How it was run: as §1

HCC1143 [13] = assay: as above
How it was run: as §1

MFM-223 [14] = assay: as above
How it was run: as §1

MDA-MB-453 [15] = assay: as above
How it was run: as §1

HCC1937 [16] = assay: as above
How it was run: as §1

MDA-MB-468 [17] = assay: as above
How it was run: as §1

CAL-120 [18] = assay: as above
How it was run: as §1

CAL-51 [19] = assay: normalised response (% of control), CellTiter-Glo; higher = more viable cells (100 = DMSO, 0 = benzethonium chloride kill control)
How it was run: (§2)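 In 384-well plates holding compound at 5 concentrations in 10-fold steps over a 10,000-fold range specific to each compound, breast cancer cell lines were seeded as 20 µl suspension and incubated 72 h. CellTox Green fluorescence was measured at 485/520 nm, after which CellTiter-Glo luminescence was measured following 10 min at room temperature. Plate signals were normalised to 0.1 % DMSO (100) and a positive kill control (0), and each value is the normalised signal at a single concentration.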

CAL-85-1 [20] = assay: as above
How it was run: as §2

HCC1599 [21] = assay: as above
How it was run: as §2

BT-549 [22] = assay: as above
How it was run: as §2

MDA-MB-436 [23] = assay: as above
How it was run: as §2

HDQ-P1 [24] = assay: as above
How it was run: as §2

CAL-148 [25] = assay: as above
How it was run: as §2

DU-4475 [26] = assay: as above
How it was run: as §2

BT-474 [27] = assay: as above
How it was run: as §2

Hs578T [28] = assay: as above
How it was run: as §2

MDA-MB-231 [29] = assay: as above
How it was run: as §2

MCF-10A = assay: as above
How it was run: as §2

SK-BR-3 [30] = assay: as above
How it was run: as §2

HCC1143 [31] = assay: as above
How it was run: as §2

MFM-223 [32] = assay: as above
How it was run: as §2

MDA-MB-453 [33] = assay: as above
How it was run: as §2

HCC1937 [34] = assay: as above
How it was run: as §2

MDA-MB-468 [35] = assay: as above
How it was run: as §2

CAL-120 [36] = assay: as above
How it was run: as §2

SMILES | normalised viability (CAL-51 [1]) | normalised viability (CAL-85-1 [2]) | normalised viability (HCC1599 [3]) | normalised viability (BT-549 [4]) | normalised viability (MDA-MB-436 [5]) | normalised viability (HDQ-P1 [6]) | normalised viability (CAL-148 [7]) | normalised viability (DU-4475 [8]) | normalised viability (BT-474 [9]) | normalised viability (Hs578T [10]) | normalised viability (MDA-MB-231 [11]) | normalised viability (SK-BR-3 [12]) | normalised viability (HCC1143 [13]) | normalised viability (MFM-223 [14]) | normalised viability (MDA-MB-453 [15]) | normalised viability (HCC1937 [16]) | normalised viability (MDA-MB-468 [17]) | normalised viability (CAL-120 [18]) | normalised response (CAL-51 [19]) | normalised response (CAL-85-1 [20]) | normalised response (HCC1599 [21]) | normalised response (BT-549 [22]) | normalised response (MDA-MB-436 [23]) | normalised response (HDQ-P1 [24]) | normalised response (CAL-148 [25]) | normalised response (DU-4475 [26]) | normalised response (BT-474 [27]) | normalised response (Hs578T [28]) | normalised response (MDA-MB-231 [29]) | normalised response (MCF-10A) | normalised response (SK-BR-3 [30]) | normalised response (HCC1143 [31]) | normalised response (MFM-223 [32]) | normalised response (MDA-MB-453 [33]) | normalised response (HCC1937 [34]) | normalised response (MDA-MB-468 [35]) | normalised response (CAL-120 [36])
C[C@@H]1C=C2C(=O)O[C@@H]3CC[C@H](C1)[C@]23O [Galiellalactone] (5 nM) | 106% | 94.9% | 88.1% | 112% | 94.6% | 120% | 115% | 104% | 105% | 109% | 93.7% | 94% | 98.9% | 102% | 97% | 84.3% | 96.7% | 81.3% | 104% | 98.1% | 102% | 101% | 107% | 107% | 107% | 97.2% | 106% | 107% | 103% | 111% | 108% | 105% | 107% | 108% | 98% | 108% | 105%
Cn1c(=O)c(F)c(Nc2ccc(I)cc2F)c2c(=O)n(C[C@@H](O)CO)cnc21 [TAK-733] (0.1 nM) | 101% | 90.7% | 73.2% | 101% | 105% | 120% | 105% | 112% | 68.7% | 128% | 105% | 97.9% | 101% | 99.9% | 111% | 88.7% | 95.8% | 87.1% | 74% | 96.6% | 94.3% | 91.8% | 96.2% | 97.1% | 104% | 99.4% | 103% | 101% | 105% | 114% | 111% | 102% | 108% | 115% | 100% | 102% | 98%
COC1=C2C[C@@H](C)C[C@H](OC)[C@H](O)[C@@H](C)/C=C(\C)[C@H](OC(N)=O)[C@@H](OC)/C=C\C=C(/C)C(=O)NC(=CC1=O)C2=O [Geldanamycin] (1 nM) | 105% | 94.6% | 87.6% | 96.8% | 110% | 124% | 119% | 132% | 112% | 130% | 96% | 103% | 95.3% | 99.9% | 108% | 92.3% | 103% | 92.6% | 100% | 101% | 101% | 101% | 107% | 101% | 129% | 102% | 105% | 108% | 103% | 105% | 110% | 107% | 103% | 127% | 101% | 109% | 107%
